Like-named read-outs stand apart in the source and are kept apart here.

Usually IC50 stands for the point on the concentration scale where inhibition reaches its midpoint.

One experiment has as its system MDA-MB-231. In words: In vitro antiproliferative MTT assay on MDA-MB-231. The experiment is classed as cell-based, human. Particulars: Homo sapiens, MDA-MB-231, up to 72 hours, mean of two independent measurements with three replicates each, read-out: Calculated IC50 ± SEM, MDA-MB-231. The text has this: (§1) Gynecological cancer cell lines of human origin including breast cancer like the triple negative MDA-MB-231 and estrogen receptor positive MCF-7, […] cervical adenocarcinoma (HeLa), and human glioblastoma (U-87) cell lines were used as in vitro models to study the antiproliferative effects of the evaluated compounds. All cell lines were cultivated in T-75 flasks in a minimal essential medium (MEM) supplemented with 10% heat-inactivated fetal bovine serum (FBS), 1% antibiotic-antimycotic mixture (penicillin-streptomycin-amphotericin B) and 1% non-essential amino acids. Non-cancerous human lung fibroblast cell line (MRC-5) was maintained in low glucose Dulbecco’s Modified Eagle Medium (DMEM) supplemented with 20% heat-inactivated FBS, 1% antibiotic-antimycotic mixture and 4 mM L-glutamine. The cells were incubated at 37°C in 5% CO^2 incubator. The cells were seeded in 96-well plates at a density of 5 x 10^3 in 100 μL per well, except for the U-87 and MRC-5 that were seeded at 1 x 10^4 density and incubated at the same conditions for overnight to allow the cells’ attachment to the well’s bottom before the treatment.
(§2) The compounds were dissolved in dimethyl sulfoxide (DMSO) as 10 mM standard stock solutions and kept at -20°C with minimum light exposure. Immediately before each experiment, the stock solution was used and diluted with a culture medium to get the final concentrations. The values of half-maximal inhibitory concentration (IC50) were determined by exposure of the cells into eight different concentrations of each tested compound (0.39, 0.78, 1.56, 3.125, 6.25, 12.5, 25 and 50 μM). Temozolomide (TMZ) and cisplatin were used as positive controls in the case of U-87 and the gynecological cell lines, respectively. The negative control wells included the cells with only MEM treatment. The plates were incubated for up to 72 hours under the same abovementioned incubation conditions. The colorimetric MTT assay was used to assess the compounds’ effect on cell proliferation. Briefly, 20 μL of MTT solution ([3-(4,5-dimethylthiazol-2-yl)-2,5-diphenyltetrazolium bromide], 5 mg/mL in PBS, Duchefa Biochemie BV, Haarlem, The Netherlands) was added to each well including the negative controls and kept under the usual incubation circumstances for additional four hours. Subsequently, the media was carefully aspirated and 100 μL of DMSO was added to each well and the plates were gently shaken for 30 min to solubilize the precipitated crystals of purple formazan. Absorbance was measured at a wavelength of 545 nm using a microplate UV-VIS reader (SPECTROstar Nano, BMG Labtech GmbH, Offenburg, Germany). The same procedure was performed using MRC-5 cells to determine the cancer selectivity of the most promising test compounds.
(§3) Cell viability data were collected from two separate experiments in triplicates and evaluated using GraphPad Prism 9.5.1 (GraphPad Software Inc., San Diego, CA, USA). The half-maximal inhibitory concentration (IC50) values were determined using the log inhibitor vs normalized response nonlinear regression model. Difference between the IC50 values of a hybrid and its corresponding fragments’ experimental combination was statistically evaluated using unpaired T-test. Cancer selectivity of the most promising test compounds was characterized by calculating and comparing their selectivity index (SI). The value of the parameter derives from the ratio of IC50 value of test compound on MRC-5 cells and that on U-87 cells. The higher the value, the better the cancer selectivity of the test compound.

Another experiment relates to MCF-7. In words: In vitro antiproliferative MTT assay on MCF-7. The experiment is classed as cell-based, human. Particulars: Homo sapiens, MCF7, up to 72 hours, mean of two independent measurements with three replicates each, read-out: Calculated IC50 ± SEM, MCF-7.
Excerpt: as §1, §2, §3

Another experiment deals with HeLa. In words: In vitro antiproliferative MTT assay on HeLa. The experiment is classed as cell-based, human. Particulars: Homo sapiens, HeLa, up to 72 hours, mean of two independent measurements with three replicates each, read-out: Calculated IC50 ± SEM, HeLa.
Excerpt: as §1, §2, §3

Another experiment concerns U-87 glioblastoma cells. In words: In vitro antiproliferative MTT assay on U-87. The experiment is classed as cell-based, human. As to conditions: Homo sapiens.
Excerpt: as §1, §2, §3
Background: Tetrazolium assays rely on reduction of a dye to a coloured formazan, in cell work by metabolically active cells.

Experiment [1] has as its system MRC-5 non-cancerous human lung fibroblast cell line. Kind of experiment: In vitro antiproliferative MTT assay on MRC-5 (cancer selectivity). The experiment is classed as cell-based.
Excerpt: as §1, §2, §3

Another experiment deals with U-87 cells. Kind of experiment: Combination assay: equimolar fragment mixtures vs hybrids on U-87. The experiment is classed as cell-based, human. On the procedure: as §2
Combination study was performed by treating cells with equimolar mixtures of the abovementioned fragments or their hybrids, and corresponding cell viability data were comparatively evaluated. In this bioassay, at least two separate experiments were performed, each in triplicate. The dataset was then subjected to appropriate statistical analysis. The calculated IC50 values were subsequently employed to quantitatively assess the extent of pharmacological benefit obtained through the hybridization of fragments in comparison to the cytotoxic effect produced by the experimental combination of PA or its derivatives and TQ fragments.
as §3

The test system of experiment [2] is MDA-MB-231, MCF-7, HeLa, U-87. Kind of experiment: In vitro antiproliferative MTT assay, cancer cell line panel. The experiment is classed as cell-based. Particulars: Homo sapiens; all tested cancer cell lines; read-out: IC50 values against cancer cells (range over cell lines). From the text:
Gynecological cancer cell lines of human origin including breast cancer like the triple negative MDA-MB-231 and estrogen receptor positive MCF-7, […] cervical adenocarcinoma (HeLa), and human glioblastoma (U-87) cell lines were used as in vitro models to study the antiproliferative effects of the evaluated compounds. All cell lines were cultivated in T-75 flasks in a minimal essential medium (MEM) supplemented with 10% heat-inactivated fetal bovine serum (FBS), 1% antibiotic-antimycotic mixture (penicillin-streptomycin-amphotericin B) and 1% non-essential amino acids. […]
The compounds were dissolved in dimethyl sulfoxide (DMSO) as 10 mM standard stock solutions and kept at -20°C with minimum light exposure. […] Absorbance was measured at a wavelength of 545 nm using a microplate UV-VIS reader (SPECTROstar Nano, BMG Labtech GmbH, Offenburg, Germany). […]
Cell viability data were collected from two separate experiments in triplicates and evaluated using GraphPad Prism 9.5.1 (GraphPad Software Inc., San Diego, CA, USA). The half-maximal inhibitory concentration (IC50) values were determined using the log inhibitor vs normalized response nonlinear regression model. Difference between the IC50 values of a hybrid and its corresponding fragments’ experimental combination was statistically evaluated using unpaired T-test. […]

With `CC1=CC(=O)C(C(C)C)=C(CCC(=O)Oc2cc(O)c3c(=O)cc(C4(O)C=CC(=O)C=C4)oc3c2)C1=O` [Compound 14, 5-hydroxy-2-(1-hydroxy-4-oxocyclohexa-2,5-dien-1-yl)-4-oxo-4H-chromen-7-yl 3-(2-isopropyl-5-methyl-3,6-dioxocyclohexa-1,4-dien-1-yl)propanoate], the IC50 is 520 ± 20 nM in the experiment on MDA-MB-231; 1200 ± 30 nM in the experiment on MCF-7; 1060 ± 80 nM in the experiment on HeLa; 1160 ± 200 nM in the experiment on U-87 glioblastoma cells (MTT, up to 72 hours, mean of two independent measurements with three replicates each, read-out: Calculated IC50 ± SEM, U-87); 1160 ± 200 nM in the experiment on U-87 glioblastoma cells (Table 3, U-87 glioblastoma, read-out: Calculated IC50 ± SEM, U-87 (Table 3)); 5100 ± 210 nM in experiment [1] (MRC5, Table 3, non-cancerous human lung fibroblasts, read-out: Calculated IC50 ± SEM, MRC-5). Further, the IC50 in experiment [2] was in the range of 510 to 1200 nM. In experiment [1] (MRC-5 vs U-87), the “Selectivity index SI = IC50 (MRC-5)/IC50 (U-87)” value turned out to be 4.40. In addition, the “Hybrid vs corresponding 1:1 fragment mixture, antiproliferative activity in words” value with U-87 cells (U-87 cells) is “synergism”. The “Fold stronger activity of hybrid than 1:1 mixture of its fragments” value in the experiment on U-87 cells (U-87 glioblastoma cells, hybrid vs mixture of fragments 4 and 6) is on record as “ca. three”.

The values are drawn from PMC10810434, “Thymoquinone-protoflavone hybrid molecules as potential antitumor agents” (PLOS ONE, 2024).
